≈ marks a conversion by molar mass, not a printed value.
Key:
[1] = system: Mycolicibacterium smegmatis; test: Antimycobacterial activity against Mycobacterium smegmatis ATCC 14468 by agar dilution method; assay type: functional
[2] = system: Mycobacterium tuberculosis; test: Antimycobacterial activity against Mycobacterium tuberculosis H37Rv by agar dilution method; assay type: functional

`CN1CC2=C(OC(N)=C(C#N)C2c2ccc(F)cc2)/C(=C/c2ccc(F)cc2)C1` (centres undefined) was tested. Which MIC [1] did it give?
The MIC was 32 µM (≈ 12.5 µg/mL).

And the MIC [2]?
Its MIC is 0.97 µM (≈ 0.38 µg/mL).

With `Cc1ccccc1/C=C1\CN(C)CC2=C1OC(N)=C(C#N)C2c1ccccc1C` (centres undefined) as the compound, how does the MIC [1] read?
The MIC was 32.6 µM (≈ 12.5 µg/mL).

What about the MIC [2] of the same compound?
The MIC was 16.3 µM (≈ 6.26 µg/mL).

Which results are given for `COc1ccccc1/C=C1\CN(C)CC2=C1OC(N)=C(C#N)C2c1ccccc1OC` (centres undefined)?
MIC [1]: 30.1 µM (≈ 12.5 µg/mL); MIC [2]: 15.1 µM (≈ 6.26 µg/mL)

Which results are given for `CN1CC2=C(OC(N)=C(C#N)C2c2ccccc2)/C(=C/c2ccccc2)C1` (centres undefined)?
MIC [1]: 70.4 µM (≈ 25 µg/mL); MIC [2]: 35.2 µM (≈ 12.5 µg/mL)

What does the source list for `CN1CC2=C(OC(N)=C(C#N)C2c2cccc(F)c2)/C(=C/c2cccc(F)c2)C1` (centres undefined)?
MIC [1]: 32 µM (≈ 12.5 µg/mL); MIC [2]: 0.99 µM (≈ 0.388 µg/mL)

Which MIC [1] does the source give for `CN1CC2=C(OC(N)=C(C#N)C2c2ccc(Cl)cc2Cl)/C(=C/c2ccc(Cl)cc2Cl)C1` (centres undefined) here?
The MIC was 50.7 µM (≈ 25 µg/mL).

What about the MIC [2] of the same compound?
The MIC was 25.4 µM (≈ 12.5 µg/mL).

`CN1CC2=C(OC(N)=C(C#N)C2c2ccc(N(C)C)cc2)/C(=C/c2ccc(N(C)C)cc2)C1` (centres undefined) was tested. Which MIC [1] did it give?
Its MIC is 28.3 µM (≈ 12.5 µg/mL).

What about the MIC [2] of the same compound?
The MIC was 0.43 µM (≈ 0.19 µg/mL).

What does the source list for `CN1CC2=C(OC(N)=C(C#N)C2/C=C/c2ccccc2)/C(=C/C=C/c2ccccc2)C1` (centres undefined)?
MIC [1]: 30.7 µM (≈ 12.5 µg/mL); MIC [2]: 30.7 µM (≈ 12.5 µg/mL)

For `COc1ccc(/C=C2\CN(C)CC3=C2OC(N)=C(C#N)C3c2ccc(OC)cc2)cc1` (centres undefined), which MIC [1] is on record?
Its MIC is 60.2 µM (≈ 25 µg/mL).

What about the MIC [2] of the same compound?
Its MIC is 30.1 µM (≈ 12.5 µg/mL).

Which MIC [1] does the source give for `CN1CC2=C(OC(N)=C(C#N)C2c2cccs2)/C(=C/c2cccs2)C1` (centres undefined) here?
Its MIC is 34.1 µM (≈ 12.5 µg/mL).

And the MIC [2]?
Its MIC is 68.1 µM (≈ 25 µg/mL).

What does the source list for `Cc1ccc(/C=C2\CN(C)CC3=C2OC(N)=C(C#N)C3c2ccc(C)cc2)cc1` (centres undefined)?
MIC [1]: 65.3 µM (≈ 25 µg/mL); MIC [2]: 16.3 µM (≈ 6.26 µg/mL)

With `CN1CC2=C(OC(N)=C(C#N)C2c2ccccc2Cl)/C(=C/c2ccccc2Cl)C1` (centres undefined) as the compound, how does the MIC [1] read?
The MIC was 59 µM (≈ 25 µg/mL).

What about the MIC [2] of the same compound?
The MIC was 1.84 µM (≈ 0.781 µg/mL).

What does the source list for `CN1CC2=C(OC(N)=C(C#N)C2c2cccc([N+](=O)[O-])c2)/C(=C/c2cccc([N+](=O)[O-])c2)C1` (centres undefined)?
MIC [1]: 56.2 µM (≈ 25 µg/mL); MIC [2]: 1.75 µM (≈ 0.78 µg/mL)

Which results are given for `CN1CC2=C(OC(N)=C(C#N)C2c2ccco2)/C(=C/c2ccco2)C1` (centres undefined)?
MIC [1]: 37.3 µM (≈ 12.5 µg/mL); MIC [2]: 37.3 µM (≈ 12.5 µg/mL)

For `CN1CC2=C(OC(N)=C(C#N)C2c2ccc(Cl)cc2)/C(=C/c2ccc(Cl)cc2)C1` (centres undefined), which MIC [1] is on record?
The MIC was 3.68 µM (≈ 1.56 µg/mL).

What about the MIC [2] of the same compound?
Its MIC is 0.92 µM (≈ 0.39 µg/mL).

Which results are given for `COc1c(N2CCNC(C)C2)c(F)cc2c(=O)c(C(=O)O)cn(C3CC3)c12` (centres undefined) [GATIFLOXACIN]?
MIC [1]: 2.08 µM (≈ 0.781 µg/mL); MIC [2]: 2.08 µM (≈ 0.781 µg/mL)

`NNC(=O)c1ccncc1` [ISONIAZID] was tested. Which MIC [1] did it give?
Its MIC is 45.6 µM (≈ 6.25 µg/mL).

And the MIC [2]?
The MIC was 0.36 µM (≈ 0.0494 µg/mL).
